Source: patent US9718781B2, “Methods and compounds for treating proliferative disorders and viral infections” (University College Dublin, National University of Ireland, …, priority 2012, dated 2017)
Several values for one entry are separate records, joined by “and”; a condition that tells them apart may be missing. Equal entries are not always repeated. Where two headings read alike, the source gives them in different places.

What was measured:
TPβ = molecular target: T1, TPβ (Homo sapiens, UniProt P21731); experiment: U46619-induced [Ca2+]i mobilization in HEK.TPβ cells; format: cell-based; conditions: for remaining activity at 1 µM / remaining activity at 10 µM: % of agonist-induced response in vehicle-treated cells; for remaining activity at 1 µM: read-out: Percentage of Control, TPβ, 1 μM; for remaining activity at 10 µM: antagonist 10 μM, read-out: Percentage of Control, TPβ, 10 μM
T1 construct: expressed in transfected cells
Procedure, shortened: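 Fluo-4-loaded (3 μM, 1 h, 25° C.) HEK293 TPβ cells in KREBs-HEPES pH 7.4, pre-incubated 10 min with test compound, then stimulated with 1 μM U46619. Fluorescence at 520 nm followed for 75 s, calibrated by Fmax (2% Triton X100) and Fmin (1 mM EGTA).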

TPα = molecular target: T2, TPα (Homo sapiens, UniProt P21731); experiment: U46619-induced [Ca2+]i mobilization in HEK.TPα cells; format: cell-based; conditions: for remaining activity at 1 µM: antagonist 1 μM, read-out: Percentage of Control, TPα, 1 μM; for remaining activity at 1 µM / remaining activity at 10 µM: % of agonist-induced response in vehicle-treated cells; for remaining activity at 10 µM: antagonist 10 μM, read-out: Percentage of Control, TPα, 10 μM
T2 construct: expressed in transfected cells
T2 sequence (P21731 1-343): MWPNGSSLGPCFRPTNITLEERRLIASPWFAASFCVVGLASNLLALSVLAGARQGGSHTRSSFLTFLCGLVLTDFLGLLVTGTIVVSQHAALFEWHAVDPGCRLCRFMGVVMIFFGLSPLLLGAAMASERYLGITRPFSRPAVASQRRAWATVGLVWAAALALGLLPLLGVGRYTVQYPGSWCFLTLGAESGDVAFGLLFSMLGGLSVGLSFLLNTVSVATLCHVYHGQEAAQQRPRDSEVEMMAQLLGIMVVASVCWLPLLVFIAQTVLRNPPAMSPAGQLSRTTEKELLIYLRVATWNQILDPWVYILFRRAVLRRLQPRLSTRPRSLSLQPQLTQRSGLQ
Procedure, shortened: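 HEK293 cells loaded with 3 μM Fluo-4 (1 h, 25° C.) in Krebs-HEPES pH 7.4, then pre-incubated with compound for 10 min. Fluorescence at 520 nm tracked after injection of 1 μM U46619. Signal calibrated by Fmax (2% Triton X100) and Fmin (1 mM EGTA).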

human platelets = experiment: ADP-induced platelet aggregation of human platelets ex vivo; format: cell-based
Text: The method of assessing platelet aggregation also allows evaluation of the effect of the compounds of the invention on platelet aggregation upon stimulation by other agonists, e.g., adenosine diphosphate (ADP) and thrombin.

[1] = test system: A/Puerto Rico/8/1934 (H1N1) influenza A virus; format: in vivo, BALB/c mice
[2] = side-by-side comparison, n=6, Table 2.6, read-out: IC50 values for inhibition of U46619-mediated [Ca2+]i, TPβ
[3] = side-by-side comparison, n=5, Table 2.6, read-out: IC50 values for inhibition of U46619-mediated [Ca2+]i, TPα
[4] = lung, Day 4, Tamiflu 10 mg/kg, TP20 0.36 mg/kg
[5] = lung, Day 4, number of animals of 3

T1 sequence (P21731 1-407 isoform P21731-2): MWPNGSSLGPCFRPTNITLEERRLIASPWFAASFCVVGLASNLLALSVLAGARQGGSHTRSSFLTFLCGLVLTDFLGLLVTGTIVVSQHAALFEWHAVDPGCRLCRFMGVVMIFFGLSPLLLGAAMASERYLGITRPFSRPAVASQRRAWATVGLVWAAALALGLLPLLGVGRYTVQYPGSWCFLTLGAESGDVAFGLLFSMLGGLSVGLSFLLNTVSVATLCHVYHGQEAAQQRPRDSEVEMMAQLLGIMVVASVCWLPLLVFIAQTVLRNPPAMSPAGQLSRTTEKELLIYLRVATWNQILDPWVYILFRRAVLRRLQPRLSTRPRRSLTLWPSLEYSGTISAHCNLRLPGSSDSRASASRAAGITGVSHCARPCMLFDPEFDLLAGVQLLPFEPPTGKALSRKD

COc1ccc(-c2cccc(Oc3ccc(C#N)cc3S(=O)(=O)NC(=O)NC(C)(C)C)c2)cc1 [NTP4, N-(tert-butylcarbamoyl)-5-cyano-2-((4′-methoxy-[1,1′-biphenyl]-3-yl)oxy)benzenesulfonamide]
activity class in HEK.TPβ cells (TPβ; antagonist 1 μM, 1 μM U46619): ACTIVE
remaining activity at 1 µM (TPβ; antagonist 1 μM, 1 μM U46619): 22.5 ± 3.7%
remaining activity at 10 µM (TPβ; 1 μM U46619): 10.2 ± 0.95%
IC50 (TPβ; [2]): 0.0604 ± 0.008 µM
inhibition of U46619-mediated responses (TPβ; used at 0.5, HEK.TPβ cells): greater than 50%
remaining activity at 1 µM (TPα; 1 μM U46619): 46.1 ± 3.87%
remaining activity at 10 µM (TPα; 1 μM U46619): 19.9 ± 2.13%
IC50 (TPα; [3]): 0.593 ± 0.0836 µM

COc1ccc(-c2cccc(Oc3ccc([N+](=O)[O-])cc3S(=O)(=O)NC(=O)NC(C)(C)C)c2)cc1 [TP20, N-(tert-butylcarbamoyl)-2-((4′-methoxy-[1,1′-biphenyl]-3-yl)oxy)-5-nitrobenzene-sulfonamide]
reduction of U46619-mediated calcium mobilization responses (TPβ; 1 & 10 μM, HEK.TPβ cells): approx. 90%
IC50 (TPβ; HEK.TPβ cells, 1 μM U46619, Table 2, read-out: IC50 data for U46619-mediated [Ca2+]i mobilization, TPβ): 0.00733 µM
remaining activity at 1 µM (TPβ; antagonist 1 μM, 1 μM U46619): 12.6 ± 1.46%
remaining activity at 10 µM (TPβ; 1 μM U46619): 9.96 ± 1.7%
IC50 (TPβ; [2]): 0.00961 ± 0.00146 µM
effect on ADP-induced platelet aggregation (human platelets): did not affect
IC50 (TPα; HEK.TPα cells, 1 μM U46619, Table 2, read-out: IC50 data for U46619-mediated [Ca2+]i mobilization, TPα): 0.119 µM
TPα:TPβ Selectivity Ratio (TPα; IC50 TPα/IC50 TPβ): 16.2
remaining activity at 1 µM (TPα; 1 μM U46619): 45.4 ± 4.07%
remaining activity at 10 µM (TPα; 1 μM U46619): 17.1 ± 2.46%
IC50 (TPα; [3]): 0.24 ± 0.0298 µM
mean time of death post-viral challenge ([1]; TP20 360 μg/kg oral gavage twice daily): 7.2 days
loss of body weight post-viral infection ([1]; Tamiflu 10 mg/kg, TP20 360 μg/kg, oral gavage twice daily): ≤ 30%
Alveolar Acute Inflammation, number of animals with the finding ([1]; lung, Day 4, 3 animals): (0)
Bronchiolar Erosion, number of animals with the finding ([1]; lung, Day 4, 3 animals): (3)
Bronchiolar Exudate, number of animals with the finding ([1]; lung, Day 4, 3 animals): (3)
Bronchiolar acute Inflammation, number of animals with the finding ([1]; lung, Day 4, 3 animals): (3)
Vascular Necrosis, number of animals with the finding ([1]; lung, Day 4, 3 animals): (0)
Extent of Perivascular Edema (Mean ± S.E.M.), Per Animal [1, 4]: 16.9 ± 1.09 (70) arbitrary units and 17.4 ± 0.98 (89) arbitrary units and 19.2 ± 1.10 (78) arbitrary units
Extent of Perivascular Edema (Mean ± S.E.M.), Per Treatment Group [1, 4]: 18.0 ± 0.59 arbitrary units
reduction in the perivascular edema compared to vehicle [1, 4]: approx. 20%
Bronchiolar Erosion, Mild [1, 5]: 3
Bronchiolar Erosion, Minimal [1, 5]: 0
Bronchiolar Erosion, Moderate [1, 5]: 0
Bronchiolar Exudate, Mild [1, 5]: 1
Bronchiolar Exudate, Minimal [1, 5]: 2
Bronchiolar Exudate, Moderate [1, 5]: 0
Bronchiolar acute Inflammation, Mild [1, 5]: 0
Bronchiolar acute Inflammation, Minimal [1, 5]: 3
Perivascular Edema, Mild [1, 5]: 0
Perivascular Edema, Minimal [1, 5]: 3
Perivascular Edema, number of animals with the finding ([1]; mouse, in vivo): (3)
